# Earlier results in patent US5665760A, “Lyophilized thioxanthenone antitumor agents” (priority 1995, dated 1997).
# Conditions: excipient alone; cited from earlier work
structure (smiles),measurement,value
"[Cl-].[Na+] [NaCl, sodium chloride]",glass transition temperature of excipient,-87 °C
